Where “and” joins values, the source holds several entries; their conditions need not be identical. Identical values can stand only once.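 96-well plates; 48 h exposure; 5 concentrations. Endpoints by linear interpolation between flanking doses. Not reached: highest tested concentration assigned. GI50 is the concentration that inhibits growth by half. At the TGI there is no net growth.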
Experiments:
Assay in all cases: inhibition of tumour cell growth, NCI panel, 48 h
[1] = test system: HL-60(TB) leukemia
[2] = test system: DMS 273 small cell lung
[3] = test system: MALME-3M melanoma
[4] = test system: M19-MEL melanoma
[5] = test system: MCF7 breast
[6] = test system: UACC-257 melanoma
[7] = test system: UACC-62 melanoma
[8] = test system: SF-268 CNS
[9] = test system: MDA-MB-435
[10] = test system: NCI-H460 lung

| SMILES | TGI [1] | TGI [2] | TGI [3] | TGI [4] | TGI [5] | TGI [6] | TGI [7] [µM] | TGI [8] [µM] | TGI [9] [µM] | TGI [10] | GI50 [1] | GI50 [2] [µM] | GI50 [3] [µM] | GI50 [4] | GI50 [5] | GI50 [6] | GI50 [7] | GI50 [8] | GI50 [10] | GI50 [9] [µM] |
| --- | --- | --- | --- | --- | --- | --- | --- | --- | --- | --- | --- | --- | --- | --- | --- | --- | --- | --- | --- | --- |
| c1ccc(CN2CCc3[nH]c4ccccc4c3C2)cc1 | 46.3 µM | > 100 µM | 35 µM | > 82.1 µM | 31.9 µM | 37.1 µM | 66.9 | > 86.8 | 46.7 | 31 µM |  |  |  |  |  |  |  |  |  |  |
| C[C@H]1C/C=C/[C@H]2[C@@H]3O[C@]3(C)[C@@H](C)[C@H]3[C@H](Cc4ccccc4)NC(=O)[C@]32OC(=O)O/C=C/[C@@](C)(O)C1=O | 11.3 µM and 2.95 µM and 4.97 µM | > 96.8 µM and 64.2 µM | 2.91 µM and 3.5 µM and 0.877 µM | 24.2 µM and 38.9 µM and 56.8 µM | 64.4 µM and 125 µM and 67.2 µM | 29.9 µM and 24.1 µM and 49.8 µM |  |  |  | 43.8 µM and 125 µM and 36.9 µM | 0.153 µM and 0.0973 µM | 0.0125 | 0.0212 | 0.0356 µM and 0.025 µM | 0.0125 µM and 0.025 µM | 0.127 µM and 0.0594 µM | 0.0652 µM and 0.025 µM | 0.0125 µM and 0.025 µM | 0.0125 µM and 0.025 µM |  |
| CCCCCCCCCC[C@@H](O)[C@@H]1CC[C@@H]([C@@H]2CC[C@@H]([C@@H](O)CCCCCCCCCC[C@H](O)CC3=CC(C)OC3=O)O2)O1 (stereo partly drawn) | 2.96 µM and 5.84 µM | 13.5 µM | 3.86 µM and 7.42 µM | > 100 µM | > 100 µM | 7.89 µM |  |  |  | > 100 µM | 1.54 µM |  | 2.13 |  | 3.52 µM | < 0.0462 µM | 7.27 µM | 3.29 µM | 3.4 µM | 4.04 |
| C/C(=N\NC(N)=S)c1ccc(C)c(C)c1 | 75.4 µM | > 100 µM | 94.1 µM | > 100 µM |  | > 100 µM | > 100 | > 100 |  | > 100 µM |  |  |  |  |  |  |  |  |  |  |
| CC[C@@]1(OC(=O)C(N)CCCCN)C(=O)OCc2c1cc1n(c2=O)Cc2cc3ccccc3nc2-1 (stereo partly drawn) | 0.127 µM | 0.366 µM | 1.79 µM | 0.509 µM |  | 1.56 µM | 0.0707 | 11.9 | 1.26 | 0.372 µM |  |  |  |  |  |  |  |  |  |  |

From PubChem BioAssay (NCI)
